Each block holds one molecule with its values, some of them ahead of it.
Legend:
[1] = % of radioactivity recovered as M1 in faeces following oral administration of [14C] aliskiren hemifumarate at 100 mg.Kg-1 level in rat; type: ADME, organism-based, Albino HAN:WIST, Feces; details: in vivo
[2] = % of radioactivity recovered as M1 in faeces following intravenous administration of [14C] aliskiren hemifumarate at 10 mg.Kg-1 level in rat; type: ADME, organism-based, Albino HAN:WIST, Feces; details: in vivo
[3] = % aliskiren recovered as M1 of receiver rat following duodenal infusion of radioactivity through bile from donor rat treated with single intravenous administration of 10 mg.Kg-1 [14C] aliskiren hemifumarate; type: ADME, organism-based, HAN:WIST(SPF); details: in vivo
[4] = % aliskiren hemifumarate recovered as M1 in faeces following single oral dose of 300 mg [14C]SPP100 studied in healthy men; type: ADME, organism-based, Feces; details: human, in vivo, at 300 mg
[5] = % aliskiren hemifumarate recovered as M1 in urine and faeces following single oral dose of 300 mg [14C]SPP100 studied in healthy men; type: ADME, organism-based, Urine/Feces; details: human, in vivo, at 300 mg
[6] = % aliskiren recovered as M1 in bile following single intravenous administration of 10 mg.Kg-1 [14C] aliskiren hemifumarate in male rat; type: ADME, organism-based, HAN:WIST(SPF); details: in vivo
[7] = % of radioactivity recovered as M1 in plasma following intravenous administration of [14C] aliskiren hemifumarate at 10 mg.Kg-1 level in rat; type: ADME, organism-based, Albino HAN:WIST; details: in vivo
[8] = % of radioactivity recovered as M1 in urine following intravenous administration of [14C] aliskiren hemifumarate at 10 mg.Kg-1 level in rat; type: ADME, organism-based, Albino HAN:WIST; details: in vivo
[9] = % aliskiren recovered as M1 in hydrolysed following single intravenous administration of 10 mg.Kg-1 [14C] aliskiren hemifumarate in male rat; type: ADME, organism-based, HAN:WIST(SPF), Bile; details: in vivo
[10] = % of radioactivity recovered as M1 in urine following oral administration of [14C] aliskiren hemifumarate at 100 mg.Kg-1 level in rat; type: ADME, organism-based, Albino HAN:WIST; details: in vivo
[11] = % aliskiren hemifumarate recovered as M1 in urine following single oral dose of 300 mg [14C]SPP100 studied in healthy men; type: ADME, organism-based; details: human, in vivo
[12] = % of radioactivity recovered as M1 in plasma following oral administration of [14C] aliskiren hemifumarate at 100 mg.Kg-1 level in rat; type: ADME, organism-based, Albino HAN:WIST; details: in vivo
[13] = % aliskiren recovered as M1 in urine following single intravenous administration of 10 mg.Kg-1 [14C] aliskiren hemifumarate in male rat; type: ADME, organism-based, HAN:WIST(SPF); details: in vivo
[14] = % aliskiren recovered as M4 in bile following single intravenous administration of 10 mg.Kg-1 [14C] aliskiren hemifumarate in male rat; type: ADME, organism-based, HAN:WIST(SPF); details: in vivo
[15] = % of radioactivity recovered as M4 in urine following intravenous administration of [14C] aliskiren hemifumarate at 10 mg.Kg-1 level in rat; type: ADME, organism-based, Albino HAN:WIST; details: in vivo
[16] = % aliskiren hemifumarate (0-72h) recovered as M4 in faeces following single oral dose of [14C] aliskiren hemifumarate at 3 mg.Kg-1 level in marmoset; type: ADME, organism-based, Callithrix jacchus, Feces; details: in vivo
[17] = % of radioactivity recovered as M4 in faeces following intravenous administration of [14C] aliskiren hemifumarate at 10 mg.Kg-1 level in rat; type: ADME, organism-based, Albino HAN:WIST, Feces; details: in vivo
[18] = % aliskiren hemifumarate recovered as M4 in urine and faeces following single oral dose of 300 mg [14C]SPP100 studied in healthy men; type: ADME, organism-based, Urine/Feces; details: human, in vivo, at 300 mg
[19] = % aliskiren recovered as M4 of receiver rat following duodenal infusion of radioactivity through bile from donor rat treated with single intravenous administration of 10 mg.Kg-1 [14C] aliskiren hemifumarate; type: ADME, organism-based, HAN:WIST(SPF); details: in vivo
[20] = % of radioactivity recovered as M4 in faeces following oral administration of [14C] aliskiren hemifumarate at 100 mg.Kg-1 level in rat; type: ADME, organism-based, Albino HAN:WIST, Feces; details: in vivo
[21] = % aliskiren hemifumarate recovered as M4 in faeces following single oral dose of 300 mg [14C]SPP100 studied in healthy men; type: ADME, organism-based, Feces; details: human, in vivo
[22] = % aliskiren hemifumarate (0-72h) recovered as M4 in faeces following single intravenous dose of [14C] aliskiren hemifumarate at 1 mg.Kg-1 level in marmoset; type: ADME, organism-based, Callithrix jacchus, Feces; details: in vivo
[23] = % aliskiren hemifumarate (0-168h) recovered as M4 in urine following single oral dose of [14C] aliskiren hemifumarate at 3 mg.Kg-1 level in marmoset; type: ADME, organism-based, Callithrix jacchus; details: in vivo
[24] = % of radioactivity recovered as M4 in plasma following oral administration of [14C] aliskiren hemifumarate at 100 mg.Kg-1 level in rat; type: ADME, organism-based, Albino HAN:WIST; details: in vivo
[25] = % aliskiren hemifumarate (0-168h) recovered as M4 in urine following single intravenous dose of [14C] aliskiren hemifumarate at 1 mg.Kg-1 level in marmoset; type: ADME, organism-based, Callithrix jacchus; details: in vivo
[26] = % aliskiren recovered as M4 in hydrolysed following single intravenous administration of 10 mg.Kg-1 [14C] aliskiren hemifumarate in male rat; type: ADME, organism-based, HAN:WIST(SPF), Bile; details: in vivo
[27] = % aliskiren recovered as M4 in urine following single intravenous administration of 10 mg.Kg-1 [14C] aliskiren hemifumarate in male rat; type: ADME, organism-based, HAN:WIST(SPF); details: in vivo
[28] = % of radioactivity recovered as M4 in plasma following intravenous administration of [14C] aliskiren hemifumarate at 10 mg.Kg-1 level in rat; type: ADME, organism-based, Albino HAN:WIST; details: in vivo
[29] = % of radioactivity recovered as M4 in urine following oral administration of [14C] aliskiren hemifumarate at 100 mg.Kg-1 level in rat; type: ADME, organism-based, Albino HAN:WIST; details: in vivo
[30] = % aliskiren hemifumarate recovered as M4 in urine following single oral dose of 300 mg [14C]SPP100 studied in healthy men; type: ADME, organism-based; details: human, in vivo, at 300 mg

Compound recovery [1]: <= 2% | Compound recovery [2]: > 2% | Compound recovery [3]: OUTCOME = Not detected | Compound recovery [4]: 0.1% | Compound recovery [5]: 0.1% | Compound recovery [6]: 1.3% | Compound recovery [8]: <= 2% | Compound recovery [9]: 2.8% | Compound recovery [10]: <= 2% | Compound recovery [11]: OUTCOME = Not detected | Compound recovery [13]: 0.8%
Compound: COCCCOc1cc(C[C@@H](C[C@H](N)[C@@H](O)C[C@H](C(=O)NCC(C)(C)C(N)=O)C(C)C)C(C)C)ccc1O
Compound recovery [7]: OUTCOME = Not detected or not investigated | Compound recovery [12]: OUTCOME = Not detected or not investigated

Compound recovery [14]: 1.4% | Compound recovery [16]: 1% | Compound recovery [18]: < 0.1% | Compound recovery [19]: OUTCOME = Not detected | Compound recovery [20]: <= 2% | Compound recovery [21]: OUTCOME = Not detected | Compound recovery [22]: 2% | Compound recovery [23]: 0% | Compound recovery [24]: <= 2% | Compound recovery [25]: 0.1% | Compound recovery [26]: 4.5% | Compound recovery [27]: 0.9% | Compound recovery [29]: <= 2% | Compound recovery [30]: < 0.1%
Compound: COc1ccc(C[C@@H](C[C@H](N)[C@@H](O)C[C@H](C(=O)NCC(C)(C)C(N)=O)C(C)C)C(C)C)cc1O
Compound recovery [15]: OUTCOME = Not detected or not investigated | Compound recovery [17]: OUTCOME = Not detected or not investigated | Compound recovery [28]: OUTCOME = Not detected or not investigated

Source: ChEMBL document CHEMBL3508693 (2016)
